Test results published in the Kinase Knowledgebase extract (Sharma et al. 2016).
pIC50: −log10 of the molar value.

Assays:
PIK3CD (Human) = PIK3CD (Human) (UniProt O00329); test: Assessment of PIK3CD Kinase Activity
PIK3CB (Human) = PIK3CB (Human) (UniProt P42338); test: Assessment of PIK3CB Kinase Activity
PIK3CG (human) = PIK3CG (human) (UniProt P48736); test: Assessment of PIK3CG Kinase Activity
PIK3CA (human) = PIK3CA (human) (UniProt P42336); test: Assessment of PIK3CA Kinase Activity
Sequence of PIK3CA (human) (P42336 whole entry, looked up): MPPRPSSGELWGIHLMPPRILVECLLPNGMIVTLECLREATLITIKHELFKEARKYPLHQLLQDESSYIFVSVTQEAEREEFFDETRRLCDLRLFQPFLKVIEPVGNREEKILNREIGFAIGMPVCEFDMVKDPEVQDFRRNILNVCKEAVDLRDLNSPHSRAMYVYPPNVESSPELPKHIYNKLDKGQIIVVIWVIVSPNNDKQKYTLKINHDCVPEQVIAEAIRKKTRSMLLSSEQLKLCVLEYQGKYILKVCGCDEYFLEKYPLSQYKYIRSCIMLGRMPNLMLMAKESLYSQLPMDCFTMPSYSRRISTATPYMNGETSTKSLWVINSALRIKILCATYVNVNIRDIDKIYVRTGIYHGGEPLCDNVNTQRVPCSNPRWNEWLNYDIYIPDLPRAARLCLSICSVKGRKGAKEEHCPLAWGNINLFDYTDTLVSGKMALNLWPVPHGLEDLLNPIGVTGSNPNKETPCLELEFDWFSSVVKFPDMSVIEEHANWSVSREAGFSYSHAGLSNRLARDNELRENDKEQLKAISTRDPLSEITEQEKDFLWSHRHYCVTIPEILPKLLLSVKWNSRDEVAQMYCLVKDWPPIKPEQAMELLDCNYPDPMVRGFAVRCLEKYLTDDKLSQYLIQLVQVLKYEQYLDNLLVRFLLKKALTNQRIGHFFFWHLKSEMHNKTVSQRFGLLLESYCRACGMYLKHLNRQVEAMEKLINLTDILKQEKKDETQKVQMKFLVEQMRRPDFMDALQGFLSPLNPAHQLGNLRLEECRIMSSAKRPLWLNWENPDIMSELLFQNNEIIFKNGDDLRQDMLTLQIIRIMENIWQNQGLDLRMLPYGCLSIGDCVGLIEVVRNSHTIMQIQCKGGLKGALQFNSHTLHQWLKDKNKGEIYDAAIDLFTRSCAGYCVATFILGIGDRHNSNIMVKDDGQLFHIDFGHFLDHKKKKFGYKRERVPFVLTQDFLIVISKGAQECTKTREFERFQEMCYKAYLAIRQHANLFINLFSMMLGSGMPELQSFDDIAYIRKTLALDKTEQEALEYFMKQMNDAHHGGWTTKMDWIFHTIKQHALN

Sequence of PIK3CB (Human) (P42338 whole entry, looked up): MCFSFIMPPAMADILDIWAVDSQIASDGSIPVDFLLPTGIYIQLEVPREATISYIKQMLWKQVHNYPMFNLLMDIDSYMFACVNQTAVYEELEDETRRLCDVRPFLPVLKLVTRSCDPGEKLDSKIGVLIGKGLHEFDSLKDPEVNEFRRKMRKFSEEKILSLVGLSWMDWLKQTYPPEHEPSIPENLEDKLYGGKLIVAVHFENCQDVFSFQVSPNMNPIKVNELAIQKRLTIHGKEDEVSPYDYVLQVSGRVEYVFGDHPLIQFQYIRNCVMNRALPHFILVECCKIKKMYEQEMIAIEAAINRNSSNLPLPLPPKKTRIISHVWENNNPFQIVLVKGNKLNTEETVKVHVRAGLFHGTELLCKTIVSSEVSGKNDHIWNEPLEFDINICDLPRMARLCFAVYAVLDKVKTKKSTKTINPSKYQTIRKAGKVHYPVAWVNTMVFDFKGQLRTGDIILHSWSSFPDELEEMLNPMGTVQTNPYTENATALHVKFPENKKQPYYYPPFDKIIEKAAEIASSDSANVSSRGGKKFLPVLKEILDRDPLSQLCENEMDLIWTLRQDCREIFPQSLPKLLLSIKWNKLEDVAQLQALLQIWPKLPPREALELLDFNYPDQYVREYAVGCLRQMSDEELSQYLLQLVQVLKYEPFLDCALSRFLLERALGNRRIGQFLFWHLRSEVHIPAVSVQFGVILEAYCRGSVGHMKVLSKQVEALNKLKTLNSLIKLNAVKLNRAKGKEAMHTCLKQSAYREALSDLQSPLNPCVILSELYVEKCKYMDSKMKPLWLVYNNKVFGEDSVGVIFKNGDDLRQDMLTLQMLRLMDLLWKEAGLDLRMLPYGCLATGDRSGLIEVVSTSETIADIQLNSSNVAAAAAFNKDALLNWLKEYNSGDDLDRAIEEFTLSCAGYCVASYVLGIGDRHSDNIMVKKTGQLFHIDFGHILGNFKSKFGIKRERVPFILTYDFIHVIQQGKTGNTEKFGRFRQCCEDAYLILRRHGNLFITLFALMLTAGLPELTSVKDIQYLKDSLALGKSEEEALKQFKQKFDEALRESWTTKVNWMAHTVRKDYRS
Sequence of PIK3CG (human) (P48736 whole entry, looked up): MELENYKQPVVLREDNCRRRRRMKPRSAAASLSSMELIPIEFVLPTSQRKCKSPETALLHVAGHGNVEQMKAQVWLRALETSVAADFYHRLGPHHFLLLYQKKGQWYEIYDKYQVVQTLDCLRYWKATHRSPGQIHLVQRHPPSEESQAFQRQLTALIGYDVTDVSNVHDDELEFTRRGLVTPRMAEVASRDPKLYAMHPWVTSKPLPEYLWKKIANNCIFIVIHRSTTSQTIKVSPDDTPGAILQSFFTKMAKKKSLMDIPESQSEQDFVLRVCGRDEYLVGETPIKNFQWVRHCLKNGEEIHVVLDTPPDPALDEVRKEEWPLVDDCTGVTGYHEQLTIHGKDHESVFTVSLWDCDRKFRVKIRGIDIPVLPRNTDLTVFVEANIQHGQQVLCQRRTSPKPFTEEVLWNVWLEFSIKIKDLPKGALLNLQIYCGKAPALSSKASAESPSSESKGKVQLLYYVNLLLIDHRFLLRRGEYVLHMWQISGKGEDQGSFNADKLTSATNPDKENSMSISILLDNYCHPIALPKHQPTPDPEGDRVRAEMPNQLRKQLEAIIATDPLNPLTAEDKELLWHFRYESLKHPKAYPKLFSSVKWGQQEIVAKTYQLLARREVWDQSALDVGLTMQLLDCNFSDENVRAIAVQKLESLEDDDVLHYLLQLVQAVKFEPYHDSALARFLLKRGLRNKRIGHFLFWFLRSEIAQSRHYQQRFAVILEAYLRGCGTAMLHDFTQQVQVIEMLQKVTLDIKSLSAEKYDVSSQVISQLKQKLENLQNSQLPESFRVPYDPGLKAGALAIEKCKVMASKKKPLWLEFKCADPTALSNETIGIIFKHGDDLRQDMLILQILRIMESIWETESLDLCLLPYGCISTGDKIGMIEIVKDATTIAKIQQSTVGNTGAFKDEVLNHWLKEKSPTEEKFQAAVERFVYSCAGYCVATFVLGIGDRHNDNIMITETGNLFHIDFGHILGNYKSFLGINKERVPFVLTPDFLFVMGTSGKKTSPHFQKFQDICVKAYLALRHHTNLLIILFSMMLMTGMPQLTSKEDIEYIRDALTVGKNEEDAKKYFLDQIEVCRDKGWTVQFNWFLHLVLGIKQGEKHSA
Sequence of PIK3CD (Human) (O00329 whole entry, looked up): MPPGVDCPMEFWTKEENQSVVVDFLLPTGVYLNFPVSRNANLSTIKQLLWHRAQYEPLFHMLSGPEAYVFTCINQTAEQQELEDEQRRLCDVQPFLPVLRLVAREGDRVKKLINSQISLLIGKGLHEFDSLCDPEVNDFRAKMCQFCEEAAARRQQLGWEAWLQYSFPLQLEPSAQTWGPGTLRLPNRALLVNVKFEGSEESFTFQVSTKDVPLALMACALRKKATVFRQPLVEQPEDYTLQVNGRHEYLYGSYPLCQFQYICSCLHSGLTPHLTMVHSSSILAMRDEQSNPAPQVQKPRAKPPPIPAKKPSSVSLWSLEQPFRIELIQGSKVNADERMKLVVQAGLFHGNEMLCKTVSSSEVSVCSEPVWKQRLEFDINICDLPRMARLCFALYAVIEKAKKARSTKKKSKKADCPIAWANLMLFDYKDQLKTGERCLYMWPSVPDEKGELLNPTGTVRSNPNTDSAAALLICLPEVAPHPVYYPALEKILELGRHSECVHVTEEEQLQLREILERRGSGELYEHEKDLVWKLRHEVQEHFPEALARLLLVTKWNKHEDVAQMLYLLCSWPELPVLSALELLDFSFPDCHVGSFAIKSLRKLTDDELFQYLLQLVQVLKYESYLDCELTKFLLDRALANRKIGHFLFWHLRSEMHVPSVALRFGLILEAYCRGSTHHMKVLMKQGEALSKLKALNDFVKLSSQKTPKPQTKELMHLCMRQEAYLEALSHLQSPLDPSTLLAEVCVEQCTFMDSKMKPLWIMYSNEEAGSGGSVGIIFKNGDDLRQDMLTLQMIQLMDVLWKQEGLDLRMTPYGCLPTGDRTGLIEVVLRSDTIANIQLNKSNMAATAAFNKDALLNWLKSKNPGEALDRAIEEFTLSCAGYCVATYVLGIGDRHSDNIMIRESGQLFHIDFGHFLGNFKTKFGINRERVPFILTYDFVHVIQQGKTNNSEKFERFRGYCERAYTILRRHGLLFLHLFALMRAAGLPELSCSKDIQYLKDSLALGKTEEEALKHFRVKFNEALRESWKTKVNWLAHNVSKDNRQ

Compound | pIC50 (PIK3CD (Human)) | pIC50 (PIK3CB (Human)) | pIC50 (PIK3CG (human)) | pIC50 (PIK3CA (human))
C[C@H](Nc1nc(N)ncc1C#N)c1cc2cccc(-c3ccnnc3)c2c(=O)n1-c1ccccc1 | > 7.00 | < 5.00 | 6.00 to 7.00 | –
C[C@H](Nc1nc(N)ncc1C#N)c1cc2cccc(-c3cccc(F)c3)c2c(=O)n1-c1ccccc1 | > 7.00 | 6.00 to 7.00 | > 7.00 | –
C[C@H](Nc1nc(N)ncc1NC(=O)c1ccccc1)c1cc2cccc(Cl)c2c(=O)n1-c1ccccc1 | – | < 5.00 | – | < 5.00
C[C@H](Nc1nc(N)ncc1C#N)c1cc2cccc(-c3ccn(C)c(=O)c3)c2c(=O)n1-c1ccccc1 | – | < 5.00 | – | < 5.00
Cc1cc(-c2cccc3cc([C@H](C)Nc4nc(N)ncc4C#N)n(-c4ccccc4)c(=O)c23)cn(C)c1=O | > 7.00 | < 5.00 | > 7.00 | –
CC#Cc1cccc2cc([C@H](C)Nc3nc(N)ncc3C#N)n(-c3ccccc3)c(=O)c12 | > 7.00 | 6.00 to 7.00 | > 7.00 | –
COc1ccc(-c2cccc3cc([C@H](C)Nc4nc(N)ncc4C#N)n(-c4ccccc4)c(=O)c23)nc1 | > 7.00 | < 5.00 | > 7.00 | –
C[C@H](Nc1nc(N)ncc1C#N)c1cc2cccc(-c3cccc(NS(=O)(=O)N(C)C)c3)c2c(=O)n1-c1ccccc1 | > 7.00 | < 5.00 | 6.00 to 7.00 | –
COc1cc(-c2cccc3cc([C@H](C)N)n(-c4ccccc4)c(=O)c23)cnc1C | – | 6.00 to 7.00 | – | –
C[C@H](Nc1nc(N)ncc1C#N)c1cc2cccc(Cl)c2c(=O)n1-c1ccon1 | > 7.00 | 6.00 to 7.00 | > 7.00 | –
Cc1csc(-c2cnc(N)nc2N[C@@H](C)c2cc3cccc(Cl)c3c(=O)n2-c2ccccc2)n1 | > 7.00 | 6.00 to 7.00 | > 7.00 | –
Cc1ccc(-c2cccc3cc([C@H](C)Nc4nc(N)ncc4C#N)n(-c4ccccc4)c(=O)c23)cn1 | > 7.00 | < 5.00 | > 7.00 | –
COc1cc(-c2cccc3cc([C@H](C)Nc4nc(N)ncc4-c4ccncc4)n(-c4ccccc4)c(=O)c23)ccn1 | > 7.00 | < 5.00 | > 7.00 | –
C[C@H](Nc1nc(N)ncc1C#N)c1cc2cccc(Cl)c2c(=O)n1-c1ccc(F)cc1F | > 7.00 | 6.00 to 7.00 | > 7.00 | –
COc1cc(N[C@@H](C)c2cc3cccc(Cl)c3c(=O)n2-c2ccccc2)nc(N)n1 | – | < 5.00 | – | < 5.00
COc1cc(-c2cccc3cc([C@H](C)Nc4nc(N)ncc4C(=O)N4CCOCC4)n(-c4ccccc4)c(=O)c23)ccn1 | – | < 5.00 | – | < 5.00
C[C@H](Nc1nc(N)ncc1-c1ncco1)c1cc2cccc(Cl)c2c(=O)n1-c1ccccc1 | > 7.00 | 6.00 to 7.00 | > 7.00 | –
Cc1cccc2cc([C@H](C)Nc3nc(N)ncc3C#N)n(-c3cccc(F)c3)c(=O)c12 | > 7.00 | 6.00 to 7.00 | > 7.00 | –
C[C@H](Nc1nc(N)ncc1C#N)c1cc2cccc(Cl)c2c(=O)n1-c1ccccc1F | > 7.00 | 6.00 to 7.00 | > 7.00 | –
CC(C)n1c([C@H](C)Nc2nc(N)ncc2C#N)cc2cccc(Cl)c2c1=O | > 7.00 | > 7.00 | > 7.00 | –

Compound | pIC50 (PIK3CD (Human)) | pIC50 (PIK3CB (Human)) | pIC50 (PIK3CG (human)) | pIC50 (PIK3CA (human))
C#Cc1cccc2cc([C@H](C)Nc3nc(N)ncc3C#N)n(-c3ccccc3)c(=O)c12 | > 7.00 | 6.00 to 7.00 | > 7.00 | –
C[C@H](Nc1nc(N)ncc1C#N)c1cc2cccc(Cl)c2c(=O)n1-c1cc(F)ccc1F | > 7.00 | 6.00 to 7.00 | > 7.00 | –
C[C@H](Nc1nc(N)ncc1C#N)c1cc2cccc(Cl)c2c(=O)n1-c1cccc(F)c1 | > 7.00 | 6.00 to 7.00 | > 7.00 | –
C[C@H](Nc1nc(N)ncc1C(=O)N(C)C)c1cc2cccc(-c3cnn(C)c3)c2c(=O)n1-c1ccccc1 | > 7.00 | < 5.00 | > 7.00 | –
C[C@H](Nc1nc(N)ncc1C#N)c1cc2cccc(Cl)c2c(=O)n1-c1ccccc1 | > 7.00 | > 7.00 | > 7.00 | –
C[C@H](Nc1nc(N)ncc1C#N)c1cc2cccc(-c3ccc(O)nc3)c2c(=O)n1-c1ccccc1 | > 7.00 | < 5.00 | > 7.00 | –
COc1ccc(-c2cccc3cc([C@H](C)Nc4nc(N)ncc4C#N)n(C4CC4)c(=O)c23)cn1 | > 7.00 | 6.00 to 7.00 | > 7.00 | –
C[C@H](Nc1nc(N)ncc1-c1cscn1)c1cc2cccc(Cl)c2c(=O)n1-c1ccccc1 | > 7.00 | 6.00 to 7.00 | > 7.00 | –
CNc1cc(-c2cccc3cc([C@H](C)Nc4nc(N)ncc4C#N)n(-c4ccccc4)c(=O)c23)ccn1 | > 7.00 | < 5.00 | > 7.00 | –
CCOc1nc(-c2cnc(N)nc2N[C@@H](C)c2cc3cccc(Cl)c3c(=O)n2-c2ccccc2)cs1 | > 7.00 | > 7.00 | > 7.00 | –
C#Cc1cnc(N)nc1N[C@@H](C)c1cc2cccc(Cl)c2c(=O)n1-c1ccccc1 | > 7.00 | 6.00 to 7.00 | > 7.00 | –
C[C@H](Nc1nc(N)ncc1C#N)c1cc2cccc(-c3ccc(=O)n(C4CCCC4)c3)c2c(=O)n1-c1ccccc1 | > 7.00 | – | > 7.00 | 6.00 to 7.00
Cc1cccc(-c2cccc3cc([C@H](C)Nc4nc(N)ncc4C#N)n(-c4ccccc4)c(=O)c23)c1 | > 7.00 | – | > 7.00 | 6.00 to 7.00
C[C@H](Nc1nc(N)ncc1C#N)c1cc2cccc(-c3cccc(S(C)(=O)=O)c3)c2c(=O)n1-c1ccccc1 | > 7.00 | < 5.00 | > 7.00 | –
COc1cc(-c2cccc3cc([C@H](C)Nc4nc(N)ncc4-c4cccnc4)n(-c4ccccc4)c(=O)c23)ccn1 | 6.00 to 7.00 | < 5.00 | 6.00 to 7.00 | –
CCOc1cc(-c2cccc3cc([C@H](C)Nc4nc(N)ncc4C#N)n(-c4ccccc4)c(=O)c23)ccn1 | > 7.00 | – | > 7.00 | 6.00 to 7.00
COc1cc(-c2cccc3cc([C@H](C)Nc4nc(N)ncc4-c4cnc(C)s4)n(-c4ccccc4)c(=O)c23)ccn1 | > 7.00 | – | > 7.00 | 6.00 to 7.00
C[C@H](Nc1nc(N)ncc1C(=O)N(C)C)c1cc2cccc(Cl)c2c(=O)n1-c1ccccc1 | > 7.00 | 6.00 to 7.00 | > 7.00 | –
CCOc1ncc(-c2cnc(N)nc2N[C@@H](C)c2cc3cccc(Cl)c3c(=O)n2-c2ccccc2)s1 | > 7.00 | 6.00 to 7.00 | > 7.00 | –
COc1cc(-c2cccc3cc([C@H](C)Nc4nc(N)ncc4[N+](=O)[O-])n(-c4ccccc4)c(=O)c23)ccn1 | > 7.00 | < 5.00 | > 7.00 | –

Compound | pIC50 (PIK3CD (Human)) | pIC50 (PIK3CB (Human)) | pIC50 (PIK3CG (human)) | pIC50 (PIK3CA (human))
COc1cncc(-c2cccc3nc([C@H](C)Nc4nc(N)ncc4C#N)n(-c4ccccc4)c(=O)c23)c1 | > 7.00 | – | > 7.00 | 6.00 to 7.00
Cc1ncc(-c2cccc3cc([C@H](C)Nc4nc(N)ncc4C#N)n(-c4ccccc4)c(=O)c23)cn1 | > 7.00 | < 5.00 | > 7.00 | –
C[C@H](Nc1nc(N)ncc1C#N)c1cc2cccc(-c3ccc(=O)n(C4CCOCC4)c3)c2c(=O)n1-c1ccccc1 | > 7.00 | – | > 7.00 | 6.00 to 7.00
C[C@H](Nc1nc(N)ncc1C#N)c1cc2cccc(Cl)c2c(=O)n1-c1cccc(F)c1F | > 7.00 | – | > 7.00 | < 5.00
C[C@H](Nc1nc(N)ncc1C#N)c1cc2cccc(-c3cnc4ccccc4c3)c2c(=O)n1-c1cccc(F)c1 | > 7.00 | – | > 7.00 | 6.00 to 7.00
Cc1ncc(-c2cccc3cc([C@H](C)Nc4nc(N)ncc4C#N)n(-c4cccc(F)c4)c(=O)c23)cn1 | > 7.00 | < 5.00 | > 7.00 | –
C[C@H](Nc1nc(N)ncc1C#N)c1nc2cccc(Cl)c2c(=O)n1-c1ccccc1 | > 7.00 | 6.00 to 7.00 | > 7.00 | –
C[C@H](Nc1nc(N)ncc1C#N)c1cc2cccc(Cl)c2c(=O)n1-c1ccc2c(c1)OCO2 | 6.00 to 7.00 | – | > 7.00 | < 5.00
C[C@H](Nc1nc(N)ncc1C#N)c1cc2cccc(Cl)c2c(=O)n1-c1cscn1 | > 7.00 | > 7.00 | > 7.00 | –
COc1ccc(-n2c([C@H](C)Nc3nc(N)ncc3C#N)cc3cccc(Cl)c3c2=O)cc1 | 6.00 to 7.00 | – | > 7.00 | < 5.00
CCn1c([C@H](C)Nc2nc(N)ncc2C#N)cc2cccc(Cl)c2c1=O | > 7.00 | > 7.00 | > 7.00 | –
COc1cc(-c2cccc3cc([C@H](C)Nc4nc(N)ncc4C#N)n(-c4ccccc4)c(=O)c23)cnc1C | > 7.00 | – | > 7.00 | 6.00 to 7.00
C[C@H](Nc1nc(N)ncc1C#N)c1cc2cccc(-c3cncc(OC(F)F)c3)c2c(=O)n1-c1ccccc1 | > 7.00 | < 5.00 | > 7.00 | –
C[C@H](Nc1nc(N)ncc1C#N)c1cc2cccc(Cl)c2c(=O)n1CC(C)(C)C | 6.00 to 7.00 | – | 6.00 to 7.00 | < 5.00
COc1cc(-c2cccc3cc([C@H](C)Nc4nc(N)ncc4C#N)n(-c4ccccc4)c(=O)c23)cnc1OC | > 7.00 | – | > 7.00 | > 7.00
C[C@H](Nc1nc(N)ncc1C#N)c1cc2cccc(-c3ccc(S(C)(=O)=O)cc3)c2c(=O)n1-c1ccccc1 | > 7.00 | < 5.00 | > 7.00 | –
C[C@H](Nc1nc(N)ncc1C#N)c1cc2cccc(-c3cncc(N(C)S(C)(=O)=O)c3)c2c(=O)n1-c1ccccc1 | > 7.00 | – | > 7.00 | 6.00 to 7.00
C[C@H](Nc1nc(N)ncc1-c1cncs1)c1cc2cccc(Cl)c2c(=O)n1-c1ccccc1 | > 7.00 | 6.00 to 7.00 | > 7.00 | –
C[C@H](Nc1nc(N)ncc1C#N)c1cc2cccc(Cl)c2c(=O)n1-c1ccc(Cl)cc1 | > 7.00 | 6.00 to 7.00 | > 7.00 | –
C[C@H](Nc1nc(N)ncc1-c1ccccn1)c1cc2cccc(Cl)c2c(=O)n1-c1ccccc1 | 6.00 to 7.00 | – | > 7.00 | < 5.00
